Assay results: patent US20260022142A1, “MACROCYCLIC IMMUNOMODULATORS” (Bristol-Myers Squibb Company, priority 2022, published 2026)
Bridge positions count the residues as written; N and C are the ends. Square brackets hold non-standard residues; d marks the D form. Peptide text beside a SMILES is read from it. * marks the point of attachment. Bip = N[C@@H](Cc1ccc(-c2ccccc2)cc1)C(=O)O; 4Pal = N[C@@H](Cc1ccncc1)C(=O)O; Carboxymethyl = O=C(O)C*; Orn = NCCC[C@H](N)C(=O)O; Pra = C#CC[C@H](N)C(=O)O; Aun = NCCCCCCCCCCC(=O)O; Dab = NCC[C@H](N)C(=O)O; Dap = NC[C@H](N)C(=O)O; AEEA = NCCOCCOCC(=O)O

Target: T1, PD-1/PD-L1 interaction (PE-labeled human PD-L1-Ig binding to Jurkat cell line over-expressing human PD-1) (Homo sapiens, UniProt Q15116)
T1 construct: expressed in transfected cells; host or cells: Jurkat
T1 sequence (Q15116 25-288): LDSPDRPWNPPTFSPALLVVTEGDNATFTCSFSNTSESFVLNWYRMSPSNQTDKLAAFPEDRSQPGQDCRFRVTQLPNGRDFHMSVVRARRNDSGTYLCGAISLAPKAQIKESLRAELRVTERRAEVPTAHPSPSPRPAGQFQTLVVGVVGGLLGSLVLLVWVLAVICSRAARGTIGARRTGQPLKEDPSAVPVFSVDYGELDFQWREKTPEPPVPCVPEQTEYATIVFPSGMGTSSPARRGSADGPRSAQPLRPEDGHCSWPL
Assay: Jurkat-PD-1 Cell Binding High-Content Screening Assay (CBA)
Format: cell-based
Settings: Jurkat cell line over-expressing human PD-1; PE-labeled PD-L1-Ig 20 nM final; read-out: Jurkat hPD1-PDL1 IC50
Outline: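 Binding of fluorescent PD-L1-Ig (20 nM final) to Jurkat-PD-1 cells was measured by automated imaging after 1 h, following a 2 h compound pre-treatment at 37° C.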

Structure (SMILES)	IC50
C#CC[C@H](NC(=O)COCCOCCNC(=O)[C@H](CCCN)NC(=O)[C@@H]1CSCC(=O)N[C@@H](Cc2ccncc2)C(=O)N[C@@H](Cc2ccc(OCC(=O)O)cc2)C(=O)N[C@@H](CC(=O)O)C(=O)N[C@@H](Cc2c[nH]c3ccccc23)C(=O)N[C@@H](C(C)C)C(=O)N[C@@H](Cc2ccc(-c3ccccc3)cc2)C(=O)N[C@@H]([C@@H](C)CC)C(=O)N[C@@H](CCCN)C(=O)N[C@H](CC(C)C)C(=O)N[C@@H](CCN)C(=O)N[C@@H](CC(C)C)C(=O)N[C@@H](C(C)C)C(=O)N[C@@H]([C@@H](C)O)C(=O)N1)C(=O)N[C@@H](CN)C(=O)NCCCCCCCCCCC(=O)O [Compound 1199] ({CH2CO}-[4Pal]Y(Carboxymethyl)DWV[Bip]I[Orn][dL][Dab]LVTC[Orn][AEEA][Pra][Dap][Aun]-OH; thioether N-14)	13.3 nM
C#CC[C@H](NC(=O)COCCOCCNC(=O)[C@H](CCCN)NC(=O)[C@@H]1CSCC(=O)N[C@@H](Cc2ccncc2)C(=O)N[C@@H](Cc2ccc(OCC(=O)O)cc2)C(=O)N[C@@H](CC(=O)O)C(=O)N[C@@H](Cc2c[nH]c3ccccc23)C(=O)N[C@@H](C(C)C)C(=O)N[C@@H](Cc2ccc(-c3ccccc3)cc2)C(=O)N[C@@H]([C@@H](C)CC)C(=O)N[C@@H](CCCN)C(=O)N[C@H](CC(C)C)C(=O)N[C@@H](CCN)C(=O)N[C@@H](CC(C)C)C(=O)N[C@@H](C(C)C)C(=O)N[C@@H]([C@@H](C)O)C(=O)N1)C(=O)N[C@@H](CCN)C(=O)NCCCCCCCCCCC(=O)O [Compound 1200] ({CH2CO}-[4Pal]Y(Carboxymethyl)DWV[Bip]I[Orn][dL][Dab]LVTC[Orn][AEEA][Pra][Dab][Aun]-OH; thioether N-14)	15.6 nM
C#CC[C@H](NC(=O)COCCOCCNC(=O)[C@H](CCCN)NC(=O)[C@@H]1CSCC(=O)N[C@@H](Cc2ccncc2)C(=O)N[C@@H](Cc2ccc(OCC(=O)O)cc2)C(=O)N[C@@H](CC(=O)O)C(=O)N[C@@H](Cc2c[nH]c3ccccc23)C(=O)N[C@@H](C(C)C)C(=O)N[C@@H](Cc2ccc(-c3ccccc3)cc2)C(=O)N[C@@H]([C@@H](C)CC)C(=O)N[C@@H](CCCN)C(=O)N[C@H](CC(C)C)C(=O)N[C@@H](CCN)C(=O)N[C@@H](CC(C)C)C(=O)N[C@@H](C(C)C)C(=O)N[C@@H]([C@@H](C)O)C(=O)N1)C(=O)N[C@@H](CCCN)C(=O)NCCCCCCCCCCC(=O)O [Compound 1201] ({CH2CO}-[4Pal]Y(Carboxymethyl)DWV[Bip]I[Orn][dL][Dab]LVTC[Orn][AEEA][Pra][Orn][Aun]-OH; thioether N-14)	7.6 nM
C#CC[C@H](NC(=O)COCCOCCNC(=O)[C@H](CCCN)NC(=O)[C@@H]1CSCC(=O)N[C@@H](Cc2ccncc2)C(=O)N[C@@H](Cc2ccc(OCC(=O)O)cc2)C(=O)N[C@@H](CC(=O)O)C(=O)N[C@@H](Cc2c[nH]c3ccccc23)C(=O)N[C@@H](C(C)C)C(=O)N[C@@H](Cc2ccc(-c3ccccc3)cc2)C(=O)N[C@@H]([C@@H](C)CC)C(=O)N[C@@H](CCCN)C(=O)N[C@H](CC(C)C)C(=O)N[C@@H](CCN)C(=O)N[C@@H](CC(C)C)C(=O)N[C@@H](C(C)C)C(=O)N[C@@H]([C@@H](C)O)C(=O)N1)C(=O)N[C@@H](CCCCN)C(=O)NCCCCCCCCCCC(=O)O [Compound 1202] ({CH2CO}-[4Pal]Y(Carboxymethyl)DWV[Bip]I[Orn][dL][Dab]LVTC[Orn][AEEA][Pra]K[Aun]-OH; thioether N-14)	16.7 nM
C#CC[C@H](NC(=O)COCCOCCNC(=O)[C@H](CCCN)NC(=O)[C@@H]1CSCC(=O)N[C@@H](Cc2ccncc2)C(=O)N[C@@H](Cc2ccc(OCC(=O)O)cc2)C(=O)N[C@@H](CC(=O)O)C(=O)N[C@@H](Cc2c[nH]c3ccccc23)C(=O)N[C@@H](C(C)C)C(=O)N[C@@H](Cc2ccc(-c3ccccc3)cc2)C(=O)N[C@@H]([C@@H](C)CC)C(=O)N[C@@H](CCCN)C(=O)N[C@H](CC(C)C)C(=O)N[C@@H](CCN)C(=O)N[C@@H](CC(C)C)C(=O)N[C@@H](C(C)C)C(=O)N[C@@H]([C@@H](C)O)C(=O)N1)C(=O)N[C@@H](CCCNC(=N)N)C(=O)NCCCCCCCCCCC(=O)O [Compound 1203] ({CH2CO}-[4Pal]Y(Carboxymethyl)DWV[Bip]I[Orn][dL][Dab]LVTC[Orn][AEEA][Pra]R[Aun]-OH; thioether N-14)	37.4 nM
C#CC[C@H](NC(=O)COCCOCCNC(=O)[C@H](CCCN)NC(=O)[C@@H]1CSCC(=O)N[C@@H](Cc2ccncc2)C(=O)N[C@@H](Cc2ccc(OCC(=O)O)cc2)C(=O)N[C@@H](CC(=O)O)C(=O)N[C@@H](Cc2c[nH]c3ccccc23)C(=O)N[C@@H](C(C)C)C(=O)N[C@@H](Cc2ccc(-c3ccccc3)cc2)C(=O)N[C@@H]([C@@H](C)CC)C(=O)N[C@@H](CCCN)C(=O)N[C@H](CC(C)C)C(=O)N[C@@H](CCN)C(=O)N[C@@H](CC(C)C)C(=O)N[C@@H](C(C)C)C(=O)N[C@@H]([C@@H](C)O)C(=O)N1)C(=O)N[C@@H](Cc1c[nH]cn1)C(=O)NCCCCCCCCCCC(=O)O [Compound 1204] ({CH2CO}-[4Pal]Y(Carboxymethyl)DWV[Bip]I[Orn][dL][Dab]LVTC[Orn][AEEA][Pra]H[Aun]-OH; thioether N-14)	9.2 nM
C#CC[C@H](NC(=O)COCCOCCNC(=O)[C@H](CN)NC(=O)[C@@H]1CSCC(=O)N[C@@H](Cc2ccncc2)C(=O)N[C@@H](Cc2ccc(OCC(=O)O)cc2)C(=O)N[C@@H](CC(=O)O)C(=O)N[C@@H](Cc2c[nH]c3ccccc23)C(=O)N[C@@H](C(C)C)C(=O)N[C@@H](Cc2ccc(-c3ccccc3)cc2)C(=O)N[C@@H]([C@@H](C)CC)C(=O)N[C@@H](CCCN)C(=O)N[C@H](CC(C)C)C(=O)N[C@@H](CCN)C(=O)N[C@@H](CC(C)C)C(=O)N[C@@H](C(C)C)C(=O)N[C@@H]([C@@H](C)O)C(=O)N1)C(=O)NCCCCCCCCCCC(=O)O [Compound 1205] ({CH2CO}-[4Pal]Y(Carboxymethyl)DWV[Bip]I[Orn][dL][Dab]LVTC[Dap][AEEA][Pra][Aun]-OH; thioether N-14)	20 nM
C#CC[C@H](NC(=O)COCCOCCNC(=O)[C@H](CCN)NC(=O)[C@@H]1CSCC(=O)N[C@@H](Cc2ccncc2)C(=O)N[C@@H](Cc2ccc(OCC(=O)O)cc2)C(=O)N[C@@H](CC(=O)O)C(=O)N[C@@H](Cc2c[nH]c3ccccc23)C(=O)N[C@@H](C(C)C)C(=O)N[C@@H](Cc2ccc(-c3ccccc3)cc2)C(=O)N[C@@H]([C@@H](C)CC)C(=O)N[C@@H](CCCN)C(=O)N[C@H](CC(C)C)C(=O)N[C@@H](CCN)C(=O)N[C@@H](CC(C)C)C(=O)N[C@@H](C(C)C)C(=O)N[C@@H]([C@@H](C)O)C(=O)N1)C(=O)NCCCCCCCCCCC(=O)O [Compound 1206] ({CH2CO}-[4Pal]Y(Carboxymethyl)DWV[Bip]I[Orn][dL][Dab]LVTC[Dab][AEEA][Pra][Aun]-OH; thioether N-14)	19.8 nM
C#CC[C@H](NC(=O)COCCOCCNC(=O)[C@H](CCCN)NC(=O)[C@@H]1CSCC(=O)N[C@@H](Cc2ccncc2)C(=O)N[C@@H](Cc2ccc(OCC(=O)O)cc2)C(=O)N[C@@H](CC(=O)O)C(=O)N[C@@H](Cc2c[nH]c3ccccc23)C(=O)N[C@@H](C(C)C)C(=O)N[C@@H](Cc2ccc(-c3ccccc3)cc2)C(=O)N[C@@H]([C@@H](C)CC)C(=O)N[C@@H](CCCN)C(=O)N[C@H](CC(C)C)C(=O)N[C@@H](CCN)C(=O)N[C@@H](CC(C)C)C(=O)N[C@@H](C(C)C)C(=O)N[C@@H]([C@@H](C)O)C(=O)N1)C(=O)NCCCCCCCCCCC(=O)O [Compound 1207] ({CH2CO}-[4Pal]Y(Carboxymethyl)DWV[Bip]I[Orn][dL][Dab]LVTC[Orn][AEEA][Pra][Aun]-OH; thioether N-14)	28.5 nM
